Target: T1, ALDH1A2 (Homo sapiens, UniProt O94788)
T1 construct: endogenous in cells; host or cells: HEK293T
T1 sequence (O94788 1-518): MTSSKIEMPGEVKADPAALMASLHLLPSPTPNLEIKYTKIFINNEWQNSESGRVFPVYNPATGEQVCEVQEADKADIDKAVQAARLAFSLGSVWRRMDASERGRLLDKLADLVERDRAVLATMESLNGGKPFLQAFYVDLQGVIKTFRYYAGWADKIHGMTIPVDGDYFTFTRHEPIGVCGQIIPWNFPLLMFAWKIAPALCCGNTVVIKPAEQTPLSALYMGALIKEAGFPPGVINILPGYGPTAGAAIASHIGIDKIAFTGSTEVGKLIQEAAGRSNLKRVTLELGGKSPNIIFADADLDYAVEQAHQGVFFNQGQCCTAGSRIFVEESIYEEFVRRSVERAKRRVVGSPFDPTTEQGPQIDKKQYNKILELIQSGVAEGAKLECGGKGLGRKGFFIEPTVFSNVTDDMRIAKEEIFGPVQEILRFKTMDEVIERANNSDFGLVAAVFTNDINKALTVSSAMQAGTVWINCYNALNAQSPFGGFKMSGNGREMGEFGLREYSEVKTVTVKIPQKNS
Experiment: ABPP chemical proteomics (LC-MS/MS) in HEK293T cells
Format: cell-based
Experimental: To explore the selectivity of IMP-2587 and IMP-2586 across the whole proteome, we performed quantitative activity-based protein profiling (ABPP) in HEK293T cells following treatment with IMP-2587 or IMP-2586 (Fig. 3a). After ABP incubation, cells were lysed, and probe-labelled proteins were ligated to biotinylated capture reagents.[27] […] USP30 was outcompeted by corresponding parent inhibitors for each ABP (Fig. 5b and d and Tables S3 and S5, ESI ^†), confirming the high potency and rapid engagement of IMP-2587 and IMP-2586 in cells. […] DESI1 and DESI2 are small ubiquitin-related modifier (SUMO) proteases,[3,29–32] and IMP-2587 and IMP-2586 may offer a starting point for future development of DESI ABPs. […]
d) Live cell probe incubation, lysate click chemistry and precipitation 6-well HEK293T cells were incubated with media containing compounds ABP 2 and ABP 4 at indicated concentrations for 1 h at 37 °C. The cells were washed with PBS and lysed with lysis buffer (50 μL (1% (v/v) Triton X-100, 0.1% (w/v) sodium dodecyl sulfate (SDS), EDTA-free complete protease inhibitor cocktail (1×, Roche) in PBS on ice for 10 min. The lysates were scraped and transferred to corresponding Lo-Bind Eppendorfs. Each lysate was sonicated for 1 minute, and the samples centrifuges at 5,000 x g at 4 °C for 5 minutes to pellet insoluble cellular debris. The supernatant was collected, and protein concentration was determined using the DC Protein Assay (Bio-Rad) as per manufacturer’s instructions, and normalised to lowest concentrated sample (e.g. 1 mg/mL, using lysis buffer). The following “click mixture” was prepared separately, preparing 6 μL for every 100 μL of […]
Capture reagent (AzRB/AzT for ABP 2, YnT/YnB for ABP 4 10 mM in DMSO, 1 vol; final concentration […]
CuSO4 (50 mM in water, 2 vol; final concentration in reaction 1 mM)
TCEP (50 mM in water, 2 vol; final concentration in reaction 1 mM)
TBTA (10 mM in DMSO, 1 vol; final concentration in reaction 100 µM)
The click mixture was vortexed and incubated at room temperature for 2 min before 6 μL of the mixture was added to every 100 μL of lysate. The reaction mixtures were shaken at room temperature for 1 h before being quenched with EDTA (500 mM in H2O) to a final concentration of 10 mM.
Proteins were precipitated by adding H2O (1 vol), MeOH (2 vol) and CHCl3 (0.5 vol), vortexing briefly then centrifuging at 17,000 × g for 5 min. The top H2O/MeOH layer was discarded and the middle layer of protein pellet and lower CHCl3 layer retained. The suspension was washed with MeOH (300 μL), and sonicated to break up the pellet. The proteins were pelleted by centrifugation at 10,000–17000 × g for 5–10 min or until a compact pellet was formed. The protein pellet was washed once more with MeOH (1 mL). The pellet was resuspended by sonicating and completely dissolving in 1% (w/v) SDS in PBS (to 5 mg/mL protein) before being made up to 1 mg/mL protein with PBS.
The lysate samples (10-20 μg) were mixed with 4× Laemmli sample loading buffer (250 mM Tris -HCl pH 6.8, 30% (v/v) glycerol, 10% (w/v) SDS, 0.05% (w/v) bromophenol blue) supplemented with 20% v/v β-mercaptoethanol (BME) and boiled for 10 min at 95 °C. The resulting protein samples were separated according to the protocol in section 3.2.c. Gel were imaged on a Typhoon imager (GE Healthcare; λEx 532 nm, λEm 575 nm for TAMRA. For protein loading quantification, gels were stained with Coomassie blue staining solution overnight, rinsed with water and imaged on an ImageQuant™ LAS 4000 imager (GE Healthcare). f) Neutravidin biotin enrichment (Affinity pull-down)
Click chemistry and precipitation steps were carried out as described in section 3.2.d, on at least 400ug of protein per sample. The pellet was resuspended by sonicating and completely dissolving in 1% (w/v) SDS in HEPES 50 mM pH 8.0, before being made up to 1 mg/mL protein with HEPES 50 mM pH 8.0 to […]
achieve a final concentration of 0.2% SDS. 20uL of each samples was collected as TL (Total lysate) […]
samples. […]

SMILES: N#CN1CC[C@@H](NC(=O)c2cc(-c3ccccc3Oc3ccc(N=[N+]=[N-])cc3)n[nH]2)C1 [IMP-2586]
- Difference (log2 fold change of enrichment) (IMP-2586 labelling vs DMSO, 30 nM, 10 min, HEK293T (Table S4, Fig.5c)): 3.54

SMILES: C#Cc1cccc(-c2cc(NC(=O)CC3CCN(C#N)C3)on2)c1 (stereo not shown) [IMP-2587]
- Difference (log2 fold change of enrichment) (IMP-2587 labelling vs DMSO, 30 nM, 10 min, HEK293T (Table S2, Fig.5a)): 3.97

SMILES: N#CN1CC[C@H](CC(=O)Nc2cc(-c3cccc(Cl)c3)no2)C1 [compound 1, reference compound]
- Difference (log2 fold change of enrichment) (compound 1 out-competition with IMP-2587 labelling, HEK293T (Table S3, Fig.5b)): -3.93

SMILES: N#CN1CC[C@@H](NC(=O)c2cc(-c3ccccc3Oc3ccccc3)n[nH]2)C1 [compound 3, reference compound]
- Difference (log2 fold change of enrichment) (compound 3 out-competition with IMP-2586 labelling, HEK293T (Table S5, Fig.5d)): -2.44
